The text below walks through data of US20100061928A1, “LABELLED ANALOGUES OF HALOBENZAMIDES AS RADIOPHARMACEUTICALS” (Institut National De La Sante et De La Recherche Medicale …, priority 2006, published 2010).

In data set [1] the test system is B16 F0 murine melanoma cells. The experiment in a line: Colony forming technique: chemotherapeutic and radiotherapeutic (^125I) effects in vitro. The format is cell-based. The conditions noted are these: for % of inhibition: radiotherapeutic effects alone; for % of inhibition (Radiotherapeutic effects alone): 125I-labelled, high specific activity. As to the method: The colony forming technique is involved, that is to say the growth of colonies of clones starting from tumour cells (B16 F0 murine melanoma cells) inoculated at a low concentration. This method makes it possible to visualize the cytotoxic and cytostatic properties of the compounds studied. The study was carried out in three parts:
The experiment is carried out on 6-well plates where 200 cells are inoculated in 2 ml of DMEM medium. After 20 hours, the medium is withdrawn and replaced with 2 ml of medium comprising the labelled compound at the desired concentration. This study is carried out in comparison with control wells comprising DMEM medium alone. […] The plates are incubated for 8 days and then the medium is withdrawn. The wells are rinsed with PBS and methanol is added for 3 minutes. Once attached, the cells are coloured with crystal violet with a contact time of 3 minutes. Subsequently, the colonies comprising more than 50 cells are counted using a dedicated counter. The growth of the treated colonies of cells is quantified in comparison with the controls. The activity of the product is expressed by a percentage of inhibition:
100−[(number of treated colonies)/(number of control colonies)]×100

Data set [2] concerns melanoma grafted subcutaneously (B16 F0 cells). The experiment in a line: Antitumour effectiveness by systemic administration after labelling with ^131I. The class given is in vivo, C57BL6 mice. As to conditions: single i.v. administration 37 MBq on D18 after graft, versus controls. As to the method:
The study relates to 20 C57B16 mice bearing a melanoma grafted subcutaneously by injection of 50 000 B16 F0 cells (0.1 ml). On the 17th day, the animals are weighed and the tumours are measured in two dimensions (L, l), the tumour volume being expressed by L×l^2×½. On the 18th day (D18), the mice are divided into two groups, the labelled compound [^131I]-31 with a high specific activity is administered by the i.v. route (37 MBq; 0.2 ml) to 10 mice and 10 constitute the control batch. The monitoring of the animals is carried out with all the necessary radioprotection measures and in particular the removal of the contaminated bedding, the animals are weighed and the tumours are measured every two days. Taking into account the volume of the tumours and ethical considerations, the surviving animals were euthenized on the 20th day after injection, i.e. 38 days after the tumour graft. […] The evaluation of the effectiveness of an i.v. administration of [^131I]-31 on tumour growth of C57BL6 mice which have received a subcutaneous graft of B 16 melanoma 18 days before treatment is represented in FIG. 2. The times on the abscissa are given with respect to the day of inoculation of the tumours and with respect to the day of treatment.
The evaluation of the effectiveness of an i.v. administration of [^131I]-46 on tumour growth of C57BL6 mice which have received a subcutaneous graft of B 16 melanoma is represented in FIG. 3. The times on the abscissa are given with respect to the day of inoculation of the tumours and with respect to the first day of treatment. Under these conditions, the median of survival is extended and changes from 32 days for the control animals to 39 days for the treated animals. This experiment was repeated according to the same protocol and fully superimposable results were obtained.

For data set [3], the system named is murine melanoma (B16 F0). The experiment in a line: Cytotoxicity, Hoechst test, B16 F0.
Procedure: The B16 F0, M4Beu and fibroblast lines are cultured in 75 cm^2 dishes comprising 12 ml of Eagle's essential medium with Earle's salts and Glutamax (Gibco-BRL, Paisley, Scotland) supplemented with 10% foetal calf serum, a solution of vitamins at 1× (Gibco), 1 mM sodium pyruvate (Gibco), a solution of nonessential amino acids at 1× (Gibco) and 4 μg/ml of gentamicin (antibiotic).
The cells are maintained at 37° C. in an incubator under an atmosphere comprising 5% CO2.
The cells (5×10^3) in 150 μl of culture medium are inoculated in 96-well plates (Nunclon™, Nunc, Roskilde, Denmark). […] The stock solutions (200×) are prepared with DMSO and are then stored at −20° C. 50 μl of a solution comprising stock solution and culture medium are subsequently added to the various wells (taking into account the different dilutions). Each test is carried out in triplicate.
The amount of cellular DNA is subsequently measured by the Hoechst test. The plates are then defrosted at ambient temperature for 10 minutes. 100 μl of a 0.01% (w/v) solution of SDS (sodium dodecyl sulphate) in sterile distilled water are subsequently added using a microvolume dispenser. The plates (96 well) are incubated with stirring at ambient temperature for 30 minutes and are then frozen at −80° C. for one hour. The plates are subsequently defrosted at ambient temperature for 20 minutes. […] The plates are then incubated for one hour at ambient temperature, with stirring and with the exclusion of light. The fluorescence obtained is measured using a Fluoroskan 96-well at the excitation wavelength at 360 nm and emission wavelength at 460 nm. Under these conditions, the fluorescence is proportional to the cell biomass in each well. The percentage of survival is defined by the fluorescence in each well (treated) with respect to the fluorescence of the control wells (drug-free), the blanks being subtracted (drug-free and cell-free wells).
Data set [4] concerns tumour. The experiment in a line: Dosimetry with regard to the tumour (MIRD programme, extrapolated to ^131I). The conditions noted are these: for Effective period: extrapolated to 131I labelling; for Biological period: from biodistribution data.
For data set [5], the system named is grafted B16 F0 murine melanoma tumour. The experiment in a line: Biodistribution of the ^125I-labelled molecules in the melanoma-bearing mouse (autoradiography of whole-body sections). As to conditions: for Biodistribution, Mean, B 16: B 16 tumour.
Data set [6] can be described thus: Elimination of the molecules: cumulative urinary and faecal excretion 0-72 hours. The format is in vivo, mouse. The conditions noted are these: cumulative excretion 0-72 hours.

Structures can show the parent of a compound that is named as a salt.

`[125I-].[Na+]` [Na^125I, sodium iodide Na^125I, reference compound]: in data set [1] (comparison for the compounds labelled with iodine-125 with a high specific activity), the “effect on colony growth (in words)” value is “without effect”.
Consider `CCN(CC)CCNC(=O)c1cccc2c(=O)c3cc([125I])ccc3[nH]c12.Cl.Cl` [[^125I]-84, [^125I]-N-(2-diethylaminoethyl)-9,10-dihydro-7-iodo-9-oxoacridine-4-carboxamide dihydrochloride], for which the “Cumulative effect (% inhib)” value came out at 17.3 % inhib in data set [1] (cold compound 84 at 0.75 μM with labelled [^125I]-84, activity 0); 18.3 % inhib in data set [1] (cold compound 84 at 0.75 μM with labelled [^125I]-84, activity 1.5 kBq); 22 % inhib in data set [1] (cold compound 84 at 0.75 μM with labelled [^125I]-84, activity 6 kBq); 40.3 % inhib in data set [1] (cold compound 84 at 0.75 μM with labelled [^125I]-84, activity 12 kBq); 54 % inhib in data set [1] (cold compound 84 at 0.75 μM with labelled [^125I]-84, activity 24 kBq); 88 % inhib in data set [1] (cold compound 84 at 0.75 μM with labelled [^125I]-84, activity 48 kBq). Also, the “% of inhibition” value in data set [1] (activity 1.5 kBq, concentration 9.31 pM) was 4.5%; in data set [1] (activity 6 kBq, concentration 37.23 pM) it was 12.4%; in data set [1] (activity 12 kBq, concentration 74.5 pM), 29%; in data set [1] (activity 24 kBq, concentration 148.9 pM), 30%; in data set [1] (activity 48 kBq, concentration 297.8 pM), 69%.
With `CCN(CC)CCNC(=O)c1cccc2cc3cccc([125I])c3nc12.Cl.Cl` [[^125I]-102, [^125I]-N-(2-diethylaminoethyl)-5-iodoacridine-4-carboxamide dihydrochloride], the “% of inhibition (Radiotherapeutic effects alone)” value was determined as 11% in data set [1] (1.39 kBq, 8.625 pM); 14.3% in data set [1] (2.78 kBq, 17.25 pM); 40.3% in data set [1] (5.55 kBq, 34.5 pM); 65.5% in data set [1] (11.1 kBq, 69 pM); 79% in data set [1] (16.7 kBq, 103.5 pM); 96.1% in data set [1] (22.2 kBq, […]). In addition, the “Cumulative effect (% inhib) (Radiotherapeutic and chemotherapeutic effects)” value in data set [1] (cold compound 102 at 6.25 nM with [125I]-102 1.39 kBq) was 30%; in data set [1] (cold compound 102 at 6.25 nM with [125I]-102 2.78 kBq), 37.5%; in data set [1] (cold compound 102 at 6.25 nM with [125I]-102 5.55 kBq), 59.5%; in data set [1] (cold compound 102 at 6.25 nM with [125I]-102 11.1 kBq), 76.5%; in data set [1] (cold compound 102 at 6.25 nM with [125I]-102 16.7 kBq), 89%.
Take `CCN(CC)CCNC(=O)c1ccc2cc([131I])ccc2n1.Cl.Cl` [[^131I]-31, [^131I]-N-(2-diethylaminoethyl)-6-iodoquinoline-2-carboxamide dihydrochloride]: in data set [2], the “median of survival (in words)” value is “a significant difference regarding the median of survival was not demonstrated” and the “tumour growth (in words)” value is recorded as “markedly slowed down”.
For orientation: IC50 means the concentration needed to halve the response being measured. For the compound `COc1cc(NS(C)(=O)=O)ccc1Nc1c2ccccc2nc2ccccc12` [amsacrine, reference compound], in data set [3] (read-out: IC50 B16, B16 F0 murine melanoma, 48 hours incubation, Hoechst test), the half-maximal inhibitory concentration (IC50) is 35 nM.
In the case of `CCN(CC)CCNC(=O)c1cccc2cc3cccc(I)c3nc12` [compound 102, N-(2-diethylaminoethyl)-5-iodoacridine-4-carboxamide dihydrochloride], the “cytotoxic activity compared with DACA (in words)” value in data set [3] (various cell lines studied (B16 F0, M4Beu, fibroblasts)) is given as “greater activity than the parent compound”. The Effective period in data set [4] was 35.4 h. Moreover, in data set [4], the Biological period is 43.3 hours. Further, the “Biodistribution, Mean, GB” value in data set [5] (1 H) came out at 281.34; in data set [5] (6 H), 281.20. The “Biodistribution, Mean, muscle” value in data set [5] (1 H) is listed as 2.34; in data set [5] (3 H), 1.34; in data set [5] (6 H) it was 1.36.
In the case of `CCN(CC)CCNC(=O)c1ccc2cncc(I)c2n1.Cl.Cl` [compound 142, N-(2-diethylaminoethyl)-8-iodo-1,6-naphthyridine-2-carboxamide dihydrochloride], in data set [6] (faeces, mice in metabolic cages), the “Faecal elimination 0-72 hours (Faeces)” value is on record as 29.4%. Further, the “Urinary and faecal elimination 0-72 hours (Total)” value in data set [6] (urine + faeces) is given as 98.3%. Also, the “Urinary elimination 0-72 hours (Urine)” value in data set [6] (urine, mice in metabolic cages) stood at 68.9%. Further, in data set [4], the Effective period is 26.1 h and the Biological period was 30.2 hours. In data set [5] (1 H), the “Biodistribution, Mean, B 16” value amounted to 23.22; the “Biodistribution, Mean, Ic” value is 32.83; the “Biodistribution, Mean, Sc” value is reported as 17.58; the “Biodistribution, Mean, blood” value was found to be 2.21. Moreover, in data set [5] (1 H), the “Biodistribution, Mean, kidney” value was 4.01; the “Biodistribution, Mean, liver” value was 3.92; the “Biodistribution, Mean, lungs” value was found to be 2.36; the “Biodistribution, Mean, muscle” value is on record as 0.86. Further, in data set [5] (1 H), the “Biodistribution, Mean, spleen” value was determined as 5.38; the “Biodistribution, Mean, thyroid” value is listed as 20.16; the “Biodistribution, Mean, uvea” value turned out to be 24.11. Besides, in data set [5] (3 H), the “Biodistribution, Mean, B 16” value is recorded as 13.87; the “Biodistribution, Mean, GB” value stood at 41.51; the “Biodistribution, Mean, Ic” value is reported as 47.65; the “Biodistribution, Mean, Sc” value was found to be 9.76. Besides, in data set [5] (3 H), the “Biodistribution, Mean, blood” value turned out to be 1.88; the “Biodistribution, Mean, kidney” value is on record as 1.51; the “Biodistribution, Mean, liver” value is listed as 2.27; the “Biodistribution, Mean, lungs” value is 1.87. Further, in data set [5] (3 H), the “Biodistribution, Mean, muscle” value is on record as 0.43; the “Biodistribution, Mean, spleen” value is recorded as 0.93; the “Biodistribution, Mean, thyroid” value was found to be 41.44; the “Biodistribution, Mean, uvea” value is 20.30. In data set [5] (6 H), the “Biodistribution, Mean, B 16” value came out at 11.42; the “Biodistribution, Mean, GB” value stood at 28.67; the “Biodistribution, Mean, Ic” value stood at 43.48; the “Biodistribution, Mean, Sc” value was found to be 9.17. Moreover, in data set [5] (6 H), the “Biodistribution, Mean, blood” value was determined as 1.36; the “Biodistribution, Mean, kidney” value stood at 1.20; the “Biodistribution, Mean, liver” value was determined as 1.49; the “Biodistribution, Mean, lungs” value is on record as 1.26. For the same compound, in data set [5] (6 H), the “Biodistribution, Mean, muscle” value stood at 0.24; the “Biodistribution, Mean, thyroid” value is listed as 56.95; the “Biodistribution, Mean, uvea” value was 13.15. In addition, in data set [5] (24 H), the “Biodistribution, Mean, B 16” value is on record as 8.37; the “Biodistribution, Mean, Ic” value was found to be 0.82; the “Biodistribution, Mean, Sc” value is reported as 0.62; the “Biodistribution, Mean, thyroid” value came to 115.66. The “Biodistribution, Mean, uvea” value in data set [5] (24 H) stood at 10.00. Moreover, in data set [5] (72 H), the “Biodistribution, Mean, B 16” value is recorded as 3.31; the “Biodistribution, Mean, Sc” value is 2.13; the “Biodistribution, Mean, uvea” value was 13.06. Moreover, the “tumour concentration (in words)” value in data set [5] (^125I-labelled compound, melanoma-bearing mouse) is recorded as “very high tumour concentration from one hour”. In addition, the “Biodistribution, Mean, brain” value in data set [5] (brain, 1 H) is 0.35. For the same compound, the “Biodistribution, Mean, pancreas” value in data set [5] (pancreas, 1 H) is 1.78.
